Measurements as given in patent publication US4272437A, “Antibacterial agents, and 4-thio azetidinone intermediates” (priority 1979, dated 1981).
Converted amounts (≈) assume the structure as drawn. Read-outs that look alike come from different tables or passages of the source.

How the values were obtained:
Str. pneumoniae A-9585 = experiment: MIC, tube dilution, Streptococcus pneumoniae A9585; type: cell-based; conditions: Streptococcus pneumoniae, A9585, Str. pneumoniae A9585; overnight 37° C., Nutrient Broth; read-out: Minimum Inhibitory Concentration (M.I.C.)
Excerpt: (§1) Representative compounds of the present invention were subjected to in vitro antibiotic screening against a variety of microorganisms.

Str. pyogenes A-9604 = experiment: MIC, tube dilution, Streptococcus pyogenes A9604; type: cell-based; conditions: Streptococcus pyogenes, A9604, Str. pyogenes A9604; overnight 37° C., Nutrient Broth; read-out: Minimum Inhibitory Concentration (M.I.C.)
Excerpt: as §1

Staph. aureus A-9537 = experiment: MIC, tube dilution, Staphylococcus aureus A9537; type: cell-based; conditions: Staphylococcus aureus, A9537, Staph. aureus A9537; overnight 37° C., Nutrient Broth; read-out: Minimum Inhibitory Concentration (M.I.C.)
Excerpt: as §1

[1] = system: Staph. aureus A-9537 and 50% serum; experiment: MIC, tube dilution, Staph. aureus A9537 + 50% serum; type: cell-based, Staphylococcus aureus; conditions: Staphylococcus aureus, overnight 37° C., read-out: Minimum Inhibitory Concentration (M.I.C.)
Excerpt: as §1

[2] = system: Staph. aureus (Pen-Res) A-9606; experiment: MIC, tube dilution, Staphylococcus aureus A9606 (Pen-Res); type: cell-based; conditions: Staphylococcus aureus, overnight 37° C.
Excerpt: as §1

[3] = system: Staph. aureus (Meth-Res) A-15097; experiment: MIC, tube dilution, Staphylococcus aureus A15097 (Meth-Res); type: cell-based; conditions: Staphylococcus aureus, overnight 37° C.
Excerpt: as §1

Str. faecalis A-20688 = experiment: MIC, tube dilution, Streptococcus faecalis A20688; type: cell-based; conditions: Enterococcus faecalis, A20688, Str. faecalis A20688; overnight 37° C.; read-out: Minimum Inhibitory Concentration (M.I.C.)
Excerpt: as §1

E. coli A-15119 = experiment: MIC, tube dilution, Escherichia coli A15119; type: cell-based; conditions: Escherichia coli, A15119, E. coli A15119; overnight 37° C.; read-out: Minimum Inhibitory Concentration (M.I.C.)
Excerpt: as §1

E. coli A-20341-1 = experiment: MIC, tube dilution, Escherichia coli A20341-1; type: cell-based
Excerpt: as §1

K. pneumoniae A-15130 = experiment: MIC, tube dilution, Klebsiella pneumoniae A15130; type: cell-based; conditions: Klebsiella pneumoniae, A15130, K. pneumoniae A15130; overnight 37° C.; read-out: Minimum Inhibitory Concentration (M.I.C.)
Excerpt: as §1

[4] = system: Klebsiella species A20468; experiment: MIC, tube dilution, Klebsiella species A20468; type: cell-based; conditions: Klebsiella species (K. pneumoniae) A20468; overnight 37° C.; read-out: Minimum Inhibitory Concentration (M.I.C.)
Excerpt: as §1

Pr. mirabilis A-9900 = experiment: MIC, tube dilution, Proteus mirabilis A9900; type: cell-based; conditions: Proteus mirabilis, A9900, Proteus mirabilis A9900; overnight 37° C.; read-out: Minimum Inhibitory Concentration (M.I.C.)
Excerpt: as §1

Pr. morganii A-15153 = experiment: MIC, tube dilution, Proteus morganii A15153; type: cell-based; conditions: Morganella morganii, A15153, Proteus morganii A15153; overnight 37° C.; read-out: Minimum Inhibitory Concentration (M.I.C.)
Excerpt: as §1

Ser. marcescens A-20019 = experiment: MIC, tube dilution, Serratia marcescens A20019; type: cell-based; conditions: Serratia marcescens, A20019, Serratia marcescens A20019; overnight 37° C.; read-out: Minimum Inhibitory Concentration (M.I.C.)
Excerpt: as §1

Ent. cloacae A-9659 = experiment: MIC, tube dilution, Enterobacter cloacae A9659; type: cell-based; conditions: Enterobacter cloacae, A9659, Enterobacter cloacae A9659; overnight 37° C.; read-out: Minimum Inhibitory Concentration (M.I.C.)
Excerpt: as §1

Ent. cloacae A-9656 = experiment: MIC, tube dilution, Enterobacter cloacae A9656; type: cell-based; conditions: overnight 37° C., read-out: Minimum Inhibitory Concentration (M.I.C.)
Excerpt: as §1

Ps. aeruginosa A-9843A = experiment: MIC, tube dilution, Pseudomonas aeruginosa A9843A; type: cell-based; conditions: Pseudomonas aeruginosa, A9843A, read-out: Minimum Inhibitory Concentration (M.I.C.), Pseudomonas aeruginosa A9843A; overnight 37° C.
Excerpt: as §1

Ps. aeruginosa A-21213 = experiment: MIC, tube dilution, Pseudomonas aeruginosa A21213; type: cell-based; conditions: Pseudomonas aeruginosa A21213; overnight 37° C.; read-out: Minimum Inhibitory Concentration (M.I.C.)
Excerpt: as §1

Proteus rettgeri A21203 = experiment: MIC, tube dilution, Proteus rettgeri A21203; type: cell-based; conditions: Providencia rettgeri, A21203, Proteus rettgeri A21203; overnight 37° C.; read-out: Minimum Inhibitory Concentration (M.I.C.)
Excerpt: as §1

Proteus vulgaris A21559 = experiment: MIC, tube dilution, Proteus vulgaris A21559; type: cell-based; conditions: Proteus vulgaris, A21559, Proteus vulgaris A21559; overnight 37° C.; read-out: Minimum Inhibitory Concentration (M.I.C.)
Excerpt: as §1

S. aureus A9537 = experiment: In vivo protection of mice, lethal infection with S. aureus A9537; conditions: Staphylococcus aureus, A9537, im, IM, 2 treatments, read-out: PD50
Experimental: Representative compounds of the present invention were also tested in vivo in mice and their PD50 (dose of compound in mg/kg required to protect 50% of the treated mice against an otherwise lethal infection of a micro-organism) values determined with respect to the test organisms shown below.

Pr. vulgaris A-9716 = experiment: MIC, tube dilution, Proteus vulgaris / Proteus mirabilis A9716; type: cell-based, Proteus vulgaris (name changed to Proteus mirabilis); conditions: Proteus vulgaris, A9716, Proteus vulgaris / Proteus mirabilis A9716; overnight 37° C.; read-out: Minimum Inhibitory Concentration (M.I.C.)
Excerpt: as §1

[5] = Staph. aureus A9606 (Pen-Res), read-out: Minimum Inhibitory Concentration (M.I.C.)
[6] = read-out: Minimum Inhibitory Concentration (M.I.C.), Staph. aureus A15097 (Meth-Res)
[7] = Escherichia coli, A203411, E. coli A20341-1; overnight 37° C.; read-out: Minimum Inhibitory Concentration (M.I.C.)
[8] = Enterobacter cloacae, A9656, Enterobacter cloacae A9656
[9] = Escherichia coli, A203411; E. coli A20341-1; overnight 37° C.; read-out: Minimum Inhibitory Concentration (M.I.C.)

O=C(O)C1=C(CCC[N+](=O)[O-])SC2CC(=O)N12 (stereo not shown) [Example 91, 2-(3'-Nitropropyl)-penem-3-carboxylic Acid]
MIC (Str. pneumoniae A-9585): 0.25 µg/mL (≈ 0.968 µM)
MIC (Str. pyogenes A-9604): 0.25 µg/mL (≈ 0.968 µM)
MIC (Staph. aureus A-9537): 0.25 µg/mL (≈ 0.968 µM)
MIC [1]: 16 µg/mL
MIC [2, 5]: 32 µg/mL (≈ 124 µM)
MIC [3, 6]: > 125 µg/mL
MIC (Str. faecalis A-20688): 63 µg/mL (≈ 244 µM)
MIC (E. coli A-15119): 1 µg/mL (≈ 3.87 µM)
MIC (E. coli A-20341-1; [7]): 63 µg/mL (≈ 244 µM)
MIC (K. pneumoniae A-15130): 16 µg/mL (≈ 62 µM)
MIC [4]: > 125 µg/mL
MIC (Pr. mirabilis A-9900): 1 µg/mL (≈ 3.87 µM)
MIC (Pr. morganii A-15153): 4 µg/mL (≈ 15.5 µM)
MIC (Ser. marcescens A-20019): 4 µg/mL (≈ 15.5 µM)
MIC (Ent. cloacae A-9659): 4 µg/mL (≈ 15.5 µM)
MIC (Ent. cloacae A-9656; [8]): 2 µg/mL (≈ 7.74 µM)
MIC (Ps. aeruginosa A-9843A): 125 µg/mL (≈ 484 µM)
MIC (Ps. aeruginosa A-21213): 125 µg/mL (≈ 484 µM)
MIC (Proteus rettgeri A21203): 2 µg/mL (≈ 7.74 µM)
MIC (Proteus vulgaris A21559): 8 µg/mL (≈ 31 µM)
ED50 (S. aureus A9537; 9.1 × 10^5 organisms): 9.6 mg/kg

CC1(C)OCC(C(N)C2=C(C(=O)O)N3C(=O)CC3S2)O1 [Example 84, (1'R,2'R,5R and 1'S,2'S,5S),(1'R,2'R,5S and 1'S,2'S,5R), (1'R,2'S,5S and 1'S,2'R,5R), (1'R,2'S,5R and 1'S,2'R,5S) 2-(1'-Amino-2,3-dihydroxy-2,3-acetonylpropyl)-penem-3-carboxylic Acid]
MIC (Str. pneumoniae A-9585): 1 µg/mL (≈ 3.33 µM)
MIC (Str. pyogenes A-9604): 1 µg/mL (≈ 3.33 µM)
MIC (Staph. aureus A-9537): 4 µg/mL (≈ 13.3 µM)
MIC [1]: 32 µg/mL
MIC [2, 5]: 16 µg/mL (≈ 53.3 µM)
MIC [3, 6]: > 125 µg/mL
MIC (Str. faecalis A-20688): > 125 µg/mL
MIC (E. coli A-15119): 16 µg/mL (≈ 53.3 µM)
MIC (E. coli A-20341-1; [9]): > 125 µg/mL
MIC (K. pneumoniae A-15130): 125 µg/mL (≈ 416 µM)
MIC [4]: > 125 µg/mL
MIC (Pr. mirabilis A-9900): 8 µg/mL (≈ 26.6 µM)
MIC (Pr. morganii A-15153): 16 µg/mL (≈ 53.3 µM)
MIC (Ser. marcescens A-20019): 63 µg/mL (≈ 210 µM)
MIC (Ent. cloacae A-9659): 125 µg/mL (≈ 416 µM)
MIC (Ent. cloacae A-9656; Enterobacter cloacae A9656): 125 µg/mL (≈ 416 µM)
MIC (Ps. aeruginosa A-9843A): > 125 µg/mL
MIC (Ps. aeruginosa A-21213): > 125 µg/mL
MIC (Proteus rettgeri A21203): 32 µg/mL (≈ 107 µM)
MIC (Proteus vulgaris A21559): 63 µg/mL (≈ 210 µM)
ED50 (S. aureus A9537; 1 × 10^6 organisms): 33 mg/kg

C[C@@H](O)[C@H]1C(=O)N2C(C(=O)O)=C(CCCCN)S[C@H]12 (relative stereo) [Example 64, (1'R,5R,6S and 1'S,5S,6R)-2-(4-Aminobutyl)-6-(1'-hydroxy-ethyl)-penem-3-carboxylic Acid (isomer B)]
MIC (Str. pneumoniae A-9585): 0.016 µg/mL (≈ 0.0559 µM)
MIC (Str. pyogenes A-9604): 0.03 µg/mL (≈ 0.105 µM)
MIC (Staph. aureus A-9537): 0.06 µg/mL (≈ 0.21 µM)
MIC [1]: 0.13 µg/mL
MIC [2, 5]: 0.13 µg/mL (≈ 0.454 µM)
MIC ([3]; Staph. aureus A15097 (Meth-Res), read-out: Minimum Inhibitory Concentration (M.I.C.)): 0.25 µg/mL (≈ 0.873 µM)
MIC (Str. faecalis A-20688): 4 µg/mL (≈ 14 µM)
MIC (E. coli A-15119): 2 µg/mL (≈ 6.98 µM)
MIC (E. coli A-20341-1; [7]): 2 µg/mL (≈ 6.98 µM)
MIC (K. pneumoniae A-15130): 4 µg/mL (≈ 14 µM)
MIC [4]: 4 µg/mL (≈ 14 µM)
MIC (Pr. mirabilis A-9900): 4 µg/mL (≈ 14 µM)
MIC (Pr. morganii A-15153): 4 µg/mL (≈ 14 µM)
MIC (Ser. marcescens A-20019): 4 µg/mL (≈ 14 µM)
MIC (Ent. cloacae A-9659): 4 µg/mL (≈ 14 µM)
MIC (Ent. cloacae A-9656; [8]): 16 µg/mL (≈ 55.9 µM)
MIC (Ps. aeruginosa A-9843A): 16 µg/mL (≈ 55.9 µM)
MIC (Proteus rettgeri A21203): 4 µg/mL (≈ 14 µM)
MIC (Proteus vulgaris A21559): 2 µg/mL (≈ 6.98 µM)
ED50 (S. aureus A9537; 8 × 10^5 organisms): 0.04 mg/kg

CSC(SC)C1=C(C(=O)O)N2C(=O)CC2S1 (stereo not shown) [Preparation 26, Sodium 2-(Dimethyldithiomethyl)penem-3-carboxylate]
MIC (Str. pneumoniae A-9585): 2 µg/mL
MIC (Str. pyogenes A-9604): 4 µg/mL
MIC (Staph. aureus A-9537): 4 µg/mL
MIC [1]: > 63 µg/mL
MIC ([2]; read-out: Minimum Inhibitory Concentration (M.I.C.), Staph. aureus A9606 (Pen-Res)): 125 µg/mL
MIC [3, 6]: > 125 µg/mL
MIC (Str. faecalis A-20688): > 125 µg/mL
MIC (E. coli A-15119): 32 µg/mL
MIC (E. coli A-20341-1; [9]): > 125 µg/mL
MIC (K. pneumoniae A-15130): > 125 µg/mL
MIC [4]: > 125 µg/mL
MIC (Pr. mirabilis A-9900): 32 µg/mL
MIC (Pr. vulgaris A-9716): 32 µg/mL
MIC (Pr. morganii A-15153): 63 µg/mL
MIC (Ser. marcescens A-20019): 63 µg/mL
MIC (Ent. cloacae A-9659): 63 µg/mL
MIC (Ent. cloacae A-9656; [8]): 63 µg/mL
MIC (Ps. aeruginosa A-9843A): 125 µg/mL
MIC (Ps. aeruginosa A-21213): 125 µg/mL
MIC (Proteus rettgeri A21203): 32 µg/mL
